The values that follow come from US12252524B2, “GIP/GLP1 co-agonist compounds” (Eli Lilly and Company, priority 2018, dated 2025).

Each structure is given as a SMILES string. Numbered stars: 1 amine (or outer) side, 2 acyl side, 3 side chain; on linkers, the order of the positions; unused ones are H or OH. Square brackets hold non-standard residues; d marks the D form. Side chains are listed from the residue outwards. Peptide text beside a SMILES is read from it. * marks the point of attachment. C20 diacid = O=C(O)CCCCCCCCCCCCCCCCCCC(=O)*; C18 diacid = O=C(O)CCCCCCCCCCCCCCCCC(=O)*; γGlu = O=C(O)[C@H](CCC(=O)[*:2])N[*:1]; αMeY = C[C@](N)(Cc1ccc(O)cc1)C(=O)O; αMeL = CC(C)C[C@](C)(N)C(=O)O; Orn = NCCC[C@H](N)C(=O)O; AEEA = NCCOCCOCC(=O)O; Aib = CC(C)(N)C(=O)O

Experiment [1] addresses human GLP-1 receptor (GLP-1R) (Homo sapiens, UniProt P43220). The experiment is described as follows: cAMP pharmacological functional assay in presence of casein, hGLP-1R. In kind it is cell-based. Conditions: HEK293 cells expressing hGLP-1R, 0.1% Casein, geometric mean; read-out: hGLP1R cAMP Rel EC50 nM (SEM, n).
For experiment [2], the target named is T1, human GLP-1R (Homo sapiens, UniProt P43220). Kind of experiment: GLP-1R CHO cell β-arrestin recruitment assay. Format: cell-based. More on the design: host or cells: CHO-K1 PathHunter cells, assay-ready frozen. As to conditions: for EC50: CHO-K1 cells, PathHunter β-arrestin-2 recruitment, 0.1% casein, read-out: hGLP1R B-Arrestin2 Rel EC50 uM (SEM, n); for hGLP1R B-Arrestin2 % Top: normalized to GLP-1 maximum control. An outline of the steps: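 PathHunter CHO-K1 cells with ProLink-tagged human GLP-1R and enzyme-acceptor-tagged β-arrestin-2 treated with serially diluted peptides in assay buffer containing 0.1% hydrolyzed casein, 90 min at 37 °C.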

In experiment [3] the target is T2, gastric inhibitory peptide receptor (GIPR) (Homo sapiens, UniProt P48546).
T2 sequence (P48546 22-466): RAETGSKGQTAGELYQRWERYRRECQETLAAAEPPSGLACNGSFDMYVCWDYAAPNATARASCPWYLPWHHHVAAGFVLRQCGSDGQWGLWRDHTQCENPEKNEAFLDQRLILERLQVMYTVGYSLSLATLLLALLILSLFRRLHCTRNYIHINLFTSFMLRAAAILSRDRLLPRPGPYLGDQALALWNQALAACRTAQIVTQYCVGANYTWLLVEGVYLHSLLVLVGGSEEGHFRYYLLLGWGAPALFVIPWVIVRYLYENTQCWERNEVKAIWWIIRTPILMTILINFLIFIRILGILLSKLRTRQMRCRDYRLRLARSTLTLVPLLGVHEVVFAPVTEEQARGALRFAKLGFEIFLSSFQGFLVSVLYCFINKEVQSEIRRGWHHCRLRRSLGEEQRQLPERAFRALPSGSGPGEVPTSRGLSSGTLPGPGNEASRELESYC
Kind of experiment: cAMP pharmacological functional assay in presence of casein, hGIPR. In kind it is cell-based. As to conditions: HEK293 cells expressing hGIPR, 0.1% Casein, geometric mean; read-out: hGIPR cAMP Rel EC50 nM (SEM, n).

In experiment [4] the target is T1, human GLP-1R. Kind of experiment: GLP-1R HEK293 cell membrane [35S]GTPγS binding assay. In kind it is biochemical. More on the design: expressed in transfected cells; host or cells: HEK293 cells expressing human GLP-1R; membranes. Conditions: HEK293 cell membranes expressing human GLP-1R, [35S]GTPγS binding; read-out: hGLP1R GTPgS Rel EC50 nM (SEM, n). An outline of the steps: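 Membranes from HEK293 cells expressing the receptor incubated with peptide and […] [35S]GTPγS in HEPES pH 7.4 buffer with NaCl, MgCl2, saponin and BSA, 30 min at room temperature. Gαs-bound label captured by anti-Gαs antibody/SPA beads and counted; EC50 from four-parameter logistic fit.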
For orientation: GTPγS resists hydrolysis and so accumulates on activated G proteins.

Chain of human GLP-1 receptor (GLP-1R) (P43220 24-463): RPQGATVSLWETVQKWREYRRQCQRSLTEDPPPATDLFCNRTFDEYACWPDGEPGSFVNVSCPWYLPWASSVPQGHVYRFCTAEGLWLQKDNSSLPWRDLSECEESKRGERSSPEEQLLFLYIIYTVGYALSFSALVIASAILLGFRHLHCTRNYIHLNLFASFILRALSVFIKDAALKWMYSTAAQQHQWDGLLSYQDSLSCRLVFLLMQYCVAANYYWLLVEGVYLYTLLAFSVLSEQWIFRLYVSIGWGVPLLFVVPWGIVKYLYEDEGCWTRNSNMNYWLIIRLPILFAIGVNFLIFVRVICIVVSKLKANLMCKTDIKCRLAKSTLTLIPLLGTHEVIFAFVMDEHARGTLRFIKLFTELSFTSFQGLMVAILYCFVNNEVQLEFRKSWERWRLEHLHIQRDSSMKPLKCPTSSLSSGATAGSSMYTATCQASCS
T1 sequence (P43220 24-463): as above

On to `CC[C@H](C)[C@H](NC(=O)[C@H](CC(C)C)NC(=O)[C@H](Cc1ccc(O)cc1)NC(=O)[C@H](CCC(=O)O)NC(=O)[C@@H](NC(=O)[C@H](Cc1ccccc1)NC(=O)[C@H](CCC(=O)O)NC(=O)C(C)(C)NC(=O)[C@H](CCC(N)=O)NC(=O)[C@H](C)NC(=O)[C@H](CCCCNC(=O)COCCOCCNC(=O)COCCOCCNC(=O)CC[C@H](NC(=O)CCCCCCCCCCCCCCCCC(=O)O)C(=O)O)NC(=O)[C@H](CCCN)NC(=O)[C@H](CC(=O)O)NC(=O)[C@H](CC(C)C)NC(=O)[C@](C)(CC(C)C)NC(=O)[C@@H](NC(=O)[C@H](CO)NC(=O)[C@H](Cc1ccc(O)cc1)NC(=O)[C@H](CC(=O)O)NC(=O)[C@H](CO)NC(=O)[C@@H](NC(=O)[C@H](Cc1ccccc1)NC(=O)[C@@H](NC(=O)CNC(=O)[C@H](CCC(=O)O)NC(=O)C(C)(C)NC(=O)[C@H](N)Cc1ccc(O)cc1)[C@@H](C)O)[C@@H](C)O)[C@@H](C)CC)[C@@H](C)CC)C(=O)N[C@@H](C)C(=O)NCC(=O)NCC(=O)N1CCC[C@H]1C(=O)N[C@@H](CO)C(=O)N[C@@H](CO)C(=O)NCC(=O)N[C@@H](C)C(=O)N1CCC[C@H]1C(=O)N1CCC[C@H]1C(=O)N1CCC[C@H]1C(=O)N[C@@H](CO)C(N)=O` [Example 368] (H-[dY][Aib]EGTFTSDYSI[αMeL]LD[Orn]K([AEEA-AEEA-γGlu-C18 diacid])AQ[Aib]EFIEYLIAGGPSSGAPPPS-NH2), for which the EC50 was found to be 0.108 nM in experiment [1], 0.0479 µM in experiment [2], 0.0757 nM in experiment [3] and 0.495 nM in experiment [4]. The “hGLP1R B-Arrestin2 % Top” value in experiment [2] is 21.3%.

As to `CC[C@H](C)[C@H](NC(=O)[C@H](CC(C)C)NC(=O)[C@](C)(Cc1ccc(O)cc1)NC(=O)[C@H](CCC(=O)O)NC(=O)[C@@H](NC(=O)[C@H](Cc1ccccc1)NC(=O)[C@H](C)NC(=O)C(C)(C)NC(=O)[C@H](CCC(N)=O)NC(=O)[C@H](C)NC(=O)[C@H](CCCCNC(=O)COCCOCCNC(=O)COCCOCCNC(=O)CC[C@H](NC(=O)CCCCCCCCCCCCCCCCCCC(=O)O)C(=O)O)NC(=O)[C@H](CCCCN)NC(=O)[C@H](CC(=O)O)NC(=O)[C@H](CC(C)C)NC(=O)[C@](C)(CC(C)C)NC(=O)[C@@H](NC(=O)[C@H](CO)NC(=O)[C@H](Cc1ccc(O)cc1)NC(=O)[C@H](CC(=O)O)NC(=O)[C@H](CO)NC(=O)[C@@H](NC(=O)[C@H](Cc1ccccc1)NC(=O)[C@@H](NC(=O)CNC(=O)[C@H](CCC(=O)O)NC(=O)C(C)(C)NC(=O)[C@H](N)Cc1ccc(O)cc1)[C@@H](C)O)[C@@H](C)O)[C@@H](C)CC)[C@@H](C)CC)C(=O)N[C@@H](C)C(=O)NCC(=O)NCC(=O)N1CCC[C@H]1C(=O)N[C@@H](CO)C(=O)N[C@@H](CO)C(=O)NCC(=O)N[C@@H](C)C(=O)N1CCC[C@H]1C(=O)N1CCC[C@H]1C(=O)N1CCC[C@H]1C(=O)N[C@@H](CO)C(N)=O` [Example 365] (H-[dY][Aib]EGTFTSDYSI[αMeL]LDKK([AEEA-AEEA-γGlu-C20 diacid])AQ[Aib]AFIE[αMeY]LIAGGPSSGAPPPS-NH2), the concentration for a half-maximal effect (EC50) in experiment [1] worked out at 0.175 nM; in experiment [2] it was 0.00703 µM; in experiment [3] it was 0.0678 nM; in experiment [4], 0.464 nM. In experiment [2], the “hGLP1R B-Arrestin2 % Top” value stood at 20.8%.

Take `CC[C@H](C)[C@H](NC(=O)[C@H](CC(C)C)NC(=O)[C@](C)(Cc1ccc(O)cc1)NC(=O)[C@H](CCC(=O)O)NC(=O)[C@@H](NC(=O)[C@H](Cc1ccccc1)NC(=O)[C@H](C)NC(=O)C(C)(C)NC(=O)[C@H](CCC(N)=O)NC(=O)[C@H](C)NC(=O)[C@H](CCCCNC(=O)COCCOCCNC(=O)CC[C@H](NC(=O)CCCCCCCCCCCCCCCCCCC(=O)O)C(=O)O)NC(=O)[C@H](CCCCN)NC(=O)[C@H](CC(=O)O)NC(=O)[C@H](CC(C)C)NC(=O)[C@](C)(CC(C)C)NC(=O)[C@@H](NC(=O)[C@H](CO)NC(=O)[C@H](Cc1ccc(O)cc1)NC(=O)[C@H](CC(=O)O)NC(=O)[C@H](CO)NC(=O)[C@@H](NC(=O)[C@H](Cc1ccccc1)NC(=O)[C@@H](NC(=O)CNC(=O)[C@H](CCC(=O)O)NC(=O)C(C)(C)NC(=O)[C@H](N)Cc1ccc(O)cc1)[C@@H](C)O)[C@@H](C)O)[C@@H](C)CC)[C@@H](C)CC)C(=O)N[C@@H](C)C(=O)NCC(=O)NCC(=O)N1CCC[C@H]1C(=O)N[C@@H](CO)C(=O)N[C@@H](CO)C(=O)NCC(=O)N[C@@H](C)C(=O)N1CCC[C@H]1C(=O)N1CCC[C@H]1C(=O)N1CCC[C@H]1C(=O)N[C@@H](CO)C(N)=O` [Example 373] (H-[dY][Aib]EGTFTSDYSI[αMeL]LDKK([AEEA-γGlu-C20 diacid])AQ[Aib]AFIE[αMeY]LIAGGPSSGAPPPS-NH2): the EC50 turned out to be 0.436 nM in experiment [1], 0.00954 µM in experiment [2], 0.185 nM in experiment [3] and 0.336 nM in experiment [4]. For the same molecule, in experiment [2], the “hGLP1R B-Arrestin2 % Top” value was determined as 22.9%.

`CC[C@H](C)[C@H](NC(=O)[C@H](CC(C)C)NC(=O)[C@](C)(Cc1ccc(O)cc1)NC(=O)[C@H](CCC(=O)O)NC(=O)[C@@H](NC(=O)[C@H](Cc1ccccc1)NC(=O)[C@H](CCC(=O)O)NC(=O)C(C)(C)NC(=O)[C@H](CCC(N)=O)NC(=O)[C@H](C)NC(=O)[C@H](CCCCNC(=O)COCCOCCNC(=O)CC[C@H](NC(=O)CCCCCCCCCCCCCCCCCCC(=O)O)C(=O)O)NC(=O)[C@H](CCCCN)NC(=O)[C@H](CC(=O)O)NC(=O)[C@H](CC(C)C)NC(=O)[C@](C)(CC(C)C)NC(=O)[C@@H](NC(=O)[C@H](CO)NC(=O)[C@H](Cc1ccc(O)cc1)NC(=O)[C@H](CC(=O)O)NC(=O)[C@H](CO)NC(=O)[C@@H](NC(=O)[C@H](Cc1ccccc1)NC(=O)[C@@H](NC(=O)CNC(=O)[C@H](CCC(=O)O)NC(=O)C(C)(C)NC(=O)[C@H](N)Cc1ccc(O)cc1)[C@@H](C)O)[C@@H](C)O)[C@@H](C)CC)[C@@H](C)CC)C(=O)N[C@@H](C)C(=O)NCC(=O)NCC(=O)N1CCC[C@H]1C(=O)N[C@@H](CO)C(=O)N[C@@H](CO)C(=O)NCC(=O)N[C@@H](C)C(=O)N1CCC[C@H]1C(=O)N1CCC[C@H]1C(=O)N1CCC[C@H]1C(=O)N[C@@H](CO)C(N)=O` [Example 372] (H-[dY][Aib]EGTFTSDYSI[αMeL]LDKK([AEEA-γGlu-C20 diacid])AQ[Aib]EFIE[αMeY]LIAGGPSSGAPPPS-NH2): the EC50 amounted to 0.365 nM in experiment [1], 0.00981 µM in experiment [2], 0.0781 nM in experiment [3] and 0.379 nM in experiment [4]. In experiment [2], the “hGLP1R B-Arrestin2 % Top” value is 32.9%.

Take `CC[C@H](C)[C@H](NC(=O)[C@H](CC(C)C)NC(=O)[C@H](Cc1ccc(O)cc1)NC(=O)[C@@H](CCC(=O)O)NC(=O)[C@@H](NC(=O)[C@H](Cc1ccccc1)NC(=O)[C@H](CCC(=O)O)NC(=O)C(C)(C)NC(=O)[C@H](CCC(N)=O)NC(=O)[C@H](C)NC(=O)[C@H](CCCCNC(=O)COCCOCCNC(=O)COCCOCCNC(=O)CC[C@H](NC(=O)CCCCCCCCCCCCCCCCCCC(=O)O)C(=O)O)NC(=O)[C@H](CCCCN)NC(=O)[C@H](CC(=O)O)NC(=O)[C@H](CC(C)C)NC(=O)[C@](C)(CC(C)C)NC(=O)[C@@H](NC(=O)[C@H](CO)NC(=O)[C@H](Cc1ccc(O)cc1)NC(=O)[C@H](CC(=O)O)NC(=O)[C@H](CO)NC(=O)[C@@H](NC(=O)[C@H](Cc1ccccc1)NC(=O)[C@@H](NC(=O)CNC(=O)[C@H](CCC(=O)O)NC(=O)C(C)(C)NC(=O)[C@H](N)Cc1ccc(O)cc1)[C@@H](C)O)[C@@H](C)O)[C@@H](C)CC)[C@@H](C)CC)C(=O)N[C@@H](CCC(=O)O)C(=O)NCC(=O)NCC(=O)N1CCC[C@H]1C(=O)N[C@@H](CO)C(=O)N[C@@H](CO)C(=O)NCC(=O)N[C@@H](C)C(=O)N1CCC[C@H]1C(=O)N1CCC[C@H]1C(=O)N1CCC[C@H]1C(=O)N[C@@H](CO)C(N)=O` [Example 353] (H-[dY][Aib]EGTFTSDYSI[αMeL]LDKK([AEEA-AEEA-γGlu-C20 diacid])AQ[Aib]EFI[dE]YLIEGGPSSGAPPPS-NH2): the EC50 turned out to be 1.09 nM in experiment [1], 0.559 µM in experiment [2], 0.497 nM in experiment [3] and 1.96 nM in experiment [4]. Further, the “hGLP1R B-Arrestin2 % Top” value in experiment [2] was 23.0%.

What is called EC50 is the midpoint of the concentration-response curve.
